In data set [1] the test system is alternative complement pathway in human serum. The data set can be described thus: Complement deposition assay of serum alternative pathway (Wieslab Complement system Alternative pathway kit). It counts as biochemical. Conditions: human serum diluted 18-fold, 37 °C 60 minutes, absorbance 405 nm. As to the method:
The Wieslab® Complement system Alternative pathway kit (WIESLAB® Complement system Alternative pathway AP330 RUO) was used to detect the inhibitory activity of the compounds on the alternative complement pathway in human serum. Human serum was diluted 18-fold with the kit diluent. The diluted serum was added to a 96-well plate at 130 µL/well. Using a compound titrator (Tecan, D300e), test compounds at corresponding concentrations were added. The test concentration of the compounds started at 10 µM, with 3-fold serial dilution for 6 concentration points, detected in single wells. The DMSO ratio was uniformly adjusted to 0.1% using DMSO in all drug-treated wells. In the positive control wells, 0.1% DMSO and 130 µL of diluted serum were added; in the negative control wells, 0.1% DMSO and 130 µL of the kit diluent were added. The mixtures were pre-incubated at room temperature for 15 min. The incubated mixtures were transferred to the 96-well plate provided by the kit at 100 µL per well, incubated at 37 °C for 60 minutes, and the liquid in the wells was discarded. 300 µL of the washing solution in the kit was added to each well. The wells were washed three times. 100 µL of the conjugated antibody Conjugate in the kit was added to each well, and it was incubated at room temperature for 30 minutes. The liquid in the wells was removed. 300 µL of the washing solution in the kit was added to each well and the wells were washed three times. 100 µL of the substrate solution was added to each well and incubated at room temperature for 30 minutes. […] Table 2. Results of complement deposition in serum alternative pathway

Data set [2] is described as follows: Pharmacokinetic study in mice. The conditions noted are these: mouse, 10 mg/kg, PO (10 mpk), male ICR (CD-1) mice, plasma. It counts as in vivo. As to the method:
Experimental Example 3: Pharmacokinetic study in mice
Purpose of the experiment: To investigate the plasma pharmacokinetics in male ICR (CD-1) mice after single intravenous administration and gavage administration of the compounds of the present disclosure.
Experimental animals: Male ICR (CD-1) mice, body weight 32-35 g; supplier: Vital River Laboratory Animal Technology Co., Ltd.
Experimental procedures: Intravenous Administration (IV); Oral Gavage (PO); the dose was 10 mg/kg (vehicle: water (containing 0.5% methylcellulose (w/v) and 0.5% Tween 80 (v/v)).
Sample collection: At each set time point, 40 µL of blood was collected from the orbital sinus of the experimental animals. Whole blood samples were placed in anticoagulant tubes containing EDTA-K2. The whole blood samples were centrifuged at 1500 g for 10 min to separate plasma. The upper-layer plasma samples were collected into sample tubes for LC-MS/MS analysis.
Data analysis: Plasma concentrations were processed using the non-compartmental model in WinNonlin™Version6.3 (Pharsight, Mountain View, CA) pharmacokinetic software. Pharmacokinetic parameters Cl, T1/2, Cmax, and AUC0-24 were calculated using the linear-log trapezoidal method, and the results were shown in the table below. Table 3. Results of the pharmacokinetic study

Data set [3] deals with collagen antibody and lipopolysaccharide-induced arthritis (CAIA). The data set can be described thus: Pharmacodynamic study in the mouse CAIA model (Experimental Example 5). It counts as in vivo, BALB/c mice. The conditions noted are these: Mean; 20mg/kg bid oral, Day0-Day14; larger AUC = greater severity. As to the method: Experimental Animals: BALB/c mice, male, 6-8 weeks, 18-20 g; Supplier: Shanghai Jihui Laboratory Animal Care Co., Ltd 1. Induction of the mouse CAIA model: On Day 0, all mice were intravenously injected via the tail vein with 0.15 mL of Arthrogen-CIA 5-clone mixed type II collagen antibody (10 mg/mL, Chondrex). […] 2. Administration: Table 7. Administration groups and administration schemes [table] The experimental data are expressed as mean±standard error (mean ± S.E.M.). The data were analyzed by One-way ANOVA/Dunnett's using Graphpad Prism and by Repeat Measurement ANOVA/Bonferroni using SPSS. P< 0.05 was considered to indicate a significant difference. Arthritis scoring: Starting from the day of modeling, the incidence of arthritis in the limbs of the animals in each group was observed three times a week until the end of the experiment. According to the different degrees of lesions (erythema and swelling), the scoring was carried out according to the standard of 0-4 points. […] The larger the AUC, the greater the severity of arthritis was. […] Arthritis score AUC

The target of data set [4] is T1, human complement factor B (Homo sapiens, UniProt P00751).
T1 construct: purchased ComplementTech A135
The data set can be described thus: TR-FRET competitive binding assay of human complement factor B (Cy5-labeled probe). Conditions: inhibitory activity against complement factor B; biotin-labeled factor B 25 nM, Cy5 probe 75 nM, 4 °C.

T1 sequence (P00751 26-764): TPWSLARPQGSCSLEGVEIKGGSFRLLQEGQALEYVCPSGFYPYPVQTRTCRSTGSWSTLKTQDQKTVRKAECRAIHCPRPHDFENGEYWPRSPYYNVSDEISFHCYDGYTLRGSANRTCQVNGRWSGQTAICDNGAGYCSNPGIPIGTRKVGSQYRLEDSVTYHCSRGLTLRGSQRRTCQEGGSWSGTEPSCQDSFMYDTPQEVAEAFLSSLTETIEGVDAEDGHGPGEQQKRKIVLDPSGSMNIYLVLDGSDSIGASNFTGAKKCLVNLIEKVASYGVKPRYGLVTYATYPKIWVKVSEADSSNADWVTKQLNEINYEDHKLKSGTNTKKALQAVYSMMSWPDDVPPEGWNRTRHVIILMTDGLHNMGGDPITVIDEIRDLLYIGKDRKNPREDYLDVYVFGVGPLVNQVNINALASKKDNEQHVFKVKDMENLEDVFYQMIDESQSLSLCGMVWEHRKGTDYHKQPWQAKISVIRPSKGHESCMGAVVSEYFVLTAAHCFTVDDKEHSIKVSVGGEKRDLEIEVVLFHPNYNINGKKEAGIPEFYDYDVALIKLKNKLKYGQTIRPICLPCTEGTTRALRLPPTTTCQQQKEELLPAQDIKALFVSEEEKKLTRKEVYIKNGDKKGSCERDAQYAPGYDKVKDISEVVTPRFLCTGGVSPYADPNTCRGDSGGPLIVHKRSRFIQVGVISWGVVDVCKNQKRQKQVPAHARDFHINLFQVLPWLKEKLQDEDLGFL

In general, IC50 refers to the concentration that inhibits the measured activity by half. Usually Cmax stands for the peak of the concentration-time curve. Take `COc1cc(C)c2[nH]ccc2c1O[C@@H]1CCN(CC(F)(F)F)C[C@H]1c1ccc(C(=O)O)cc1` [Example 14a-2, 4-((3R,4R)-4-((5-methoxy-7-methyl-1H-indol-4-yl)oxy)-1-(2,2,2-trifluoroethyl)piperidin-3-yl)benzoic acid]: the IC50 in data set [1] was found to be 59.3 nM; in data set [4], 10.2 nM. Further, in data set [2], the Cmax was 1370 ng/mL. Further, in data set [2] (read-out: AUC0-24), the AUC(0-t) is 6690 ng·h/mL. Further, the “Arthritis score AUC” value in data set [3] was 3.00.

These data come from patent publication EP4650351A1, “INHIBITOR OF COMPLEMENT FACTOR B” (Nanjing Chia Tai Tianqing Pharmaceutical Co., Ltd., priority 2023, dated 2024).
